Measured values taken from the kinase profiling compilation of Christmann-Franck et al. (2016).

Columns and labels:
Test in all cases: radiometric filter-binding kinase assay
[1] = tested on: AKT1 (human), P31749 [S473D]
[2] = tested on: AKT2 (human), P31751 [S474D]
CSNK2A1 (human) = CSNK2A1 (human) (UniProt P68400)
DYRK3 (human) = DYRK3 (human) (UniProt O43781)
EPHA2 (human) = EPHA2 (human) (UniProt P29317)
EPHB1 (human) = EPHB1 (human) (UniProt P54762); settings: compound 1.0 µM
FGFR1 (human) = FGFR1 (human) (UniProt P11362)
GSK3B (human) = GSK3B (human) (UniProt P49841)
INSR (human) = INSR (human) (UniProt P06213)
INSR (human), sequence (P06213 whole entry, looked up): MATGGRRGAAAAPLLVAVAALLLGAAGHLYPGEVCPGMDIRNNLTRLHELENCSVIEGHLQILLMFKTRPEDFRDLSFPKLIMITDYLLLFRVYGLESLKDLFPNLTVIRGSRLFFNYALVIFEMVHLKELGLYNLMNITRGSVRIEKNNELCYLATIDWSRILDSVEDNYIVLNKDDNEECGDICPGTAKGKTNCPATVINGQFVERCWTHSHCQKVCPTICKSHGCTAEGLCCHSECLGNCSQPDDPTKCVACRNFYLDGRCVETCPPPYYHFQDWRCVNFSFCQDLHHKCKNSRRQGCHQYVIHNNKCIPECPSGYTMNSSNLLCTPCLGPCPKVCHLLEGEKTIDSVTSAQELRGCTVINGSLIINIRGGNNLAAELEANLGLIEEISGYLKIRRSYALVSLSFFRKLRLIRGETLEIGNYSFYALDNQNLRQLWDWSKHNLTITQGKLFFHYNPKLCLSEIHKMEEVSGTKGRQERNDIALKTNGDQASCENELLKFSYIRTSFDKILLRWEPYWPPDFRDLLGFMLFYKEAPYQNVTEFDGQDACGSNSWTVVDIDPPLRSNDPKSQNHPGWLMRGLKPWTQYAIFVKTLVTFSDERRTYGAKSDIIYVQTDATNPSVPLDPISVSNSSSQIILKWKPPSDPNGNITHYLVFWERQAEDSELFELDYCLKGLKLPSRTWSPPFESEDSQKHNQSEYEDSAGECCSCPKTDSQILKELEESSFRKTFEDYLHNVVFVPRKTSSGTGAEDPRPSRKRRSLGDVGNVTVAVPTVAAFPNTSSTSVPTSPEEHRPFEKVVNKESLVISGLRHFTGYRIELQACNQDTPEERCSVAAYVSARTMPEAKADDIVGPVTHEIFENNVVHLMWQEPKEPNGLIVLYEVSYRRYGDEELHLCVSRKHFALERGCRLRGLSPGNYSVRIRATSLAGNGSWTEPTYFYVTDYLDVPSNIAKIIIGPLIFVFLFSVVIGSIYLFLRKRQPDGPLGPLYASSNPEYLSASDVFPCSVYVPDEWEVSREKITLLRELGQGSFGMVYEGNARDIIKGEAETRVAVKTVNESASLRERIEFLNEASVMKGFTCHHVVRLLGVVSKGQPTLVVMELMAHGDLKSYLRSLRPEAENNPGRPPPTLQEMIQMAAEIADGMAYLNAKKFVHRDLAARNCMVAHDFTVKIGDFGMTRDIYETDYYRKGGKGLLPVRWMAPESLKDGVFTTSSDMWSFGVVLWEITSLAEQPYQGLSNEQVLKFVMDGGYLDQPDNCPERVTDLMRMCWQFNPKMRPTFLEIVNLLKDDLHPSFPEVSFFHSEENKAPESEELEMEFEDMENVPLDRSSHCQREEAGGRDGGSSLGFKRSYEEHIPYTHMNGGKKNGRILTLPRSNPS

INSRR (human) = INSRR (human) (UniProt P14616)
IRAK4 (human) = IRAK4 (human) (UniProt Q9NWZ3)
LCK (mouse) = settings: accession and sequence are those of the human protein
MAP2K1 (human) = MAP2K1 (human) (UniProt Q02750)
MAP2K6 (human) = MAP2K6 (human) (UniProt P52564); settings: compound 1.0 µM
MAP3K9 (human) = MAP3K9 (human) (UniProt P80192)
MAPK10 (human) = MAPK10 (human) (UniProt P53779)
MAPK11 (human) = MAPK11 (human) (UniProt Q15759)
MAPK13 (human) = MAPK13 (human) (UniProt O15264)
MARK1 (human) = MARK1 (human) (UniProt Q9P0L2)
MARK2 (human) = MARK2 (human) (UniProt Q7KZI7)
MKNK1 (human) = MKNK1 (human) (UniProt Q9BUB5)
MYLK (human) = MYLK (human) (UniProt Q15746)
MYLK (human), sequence (Q15746 whole entry, looked up): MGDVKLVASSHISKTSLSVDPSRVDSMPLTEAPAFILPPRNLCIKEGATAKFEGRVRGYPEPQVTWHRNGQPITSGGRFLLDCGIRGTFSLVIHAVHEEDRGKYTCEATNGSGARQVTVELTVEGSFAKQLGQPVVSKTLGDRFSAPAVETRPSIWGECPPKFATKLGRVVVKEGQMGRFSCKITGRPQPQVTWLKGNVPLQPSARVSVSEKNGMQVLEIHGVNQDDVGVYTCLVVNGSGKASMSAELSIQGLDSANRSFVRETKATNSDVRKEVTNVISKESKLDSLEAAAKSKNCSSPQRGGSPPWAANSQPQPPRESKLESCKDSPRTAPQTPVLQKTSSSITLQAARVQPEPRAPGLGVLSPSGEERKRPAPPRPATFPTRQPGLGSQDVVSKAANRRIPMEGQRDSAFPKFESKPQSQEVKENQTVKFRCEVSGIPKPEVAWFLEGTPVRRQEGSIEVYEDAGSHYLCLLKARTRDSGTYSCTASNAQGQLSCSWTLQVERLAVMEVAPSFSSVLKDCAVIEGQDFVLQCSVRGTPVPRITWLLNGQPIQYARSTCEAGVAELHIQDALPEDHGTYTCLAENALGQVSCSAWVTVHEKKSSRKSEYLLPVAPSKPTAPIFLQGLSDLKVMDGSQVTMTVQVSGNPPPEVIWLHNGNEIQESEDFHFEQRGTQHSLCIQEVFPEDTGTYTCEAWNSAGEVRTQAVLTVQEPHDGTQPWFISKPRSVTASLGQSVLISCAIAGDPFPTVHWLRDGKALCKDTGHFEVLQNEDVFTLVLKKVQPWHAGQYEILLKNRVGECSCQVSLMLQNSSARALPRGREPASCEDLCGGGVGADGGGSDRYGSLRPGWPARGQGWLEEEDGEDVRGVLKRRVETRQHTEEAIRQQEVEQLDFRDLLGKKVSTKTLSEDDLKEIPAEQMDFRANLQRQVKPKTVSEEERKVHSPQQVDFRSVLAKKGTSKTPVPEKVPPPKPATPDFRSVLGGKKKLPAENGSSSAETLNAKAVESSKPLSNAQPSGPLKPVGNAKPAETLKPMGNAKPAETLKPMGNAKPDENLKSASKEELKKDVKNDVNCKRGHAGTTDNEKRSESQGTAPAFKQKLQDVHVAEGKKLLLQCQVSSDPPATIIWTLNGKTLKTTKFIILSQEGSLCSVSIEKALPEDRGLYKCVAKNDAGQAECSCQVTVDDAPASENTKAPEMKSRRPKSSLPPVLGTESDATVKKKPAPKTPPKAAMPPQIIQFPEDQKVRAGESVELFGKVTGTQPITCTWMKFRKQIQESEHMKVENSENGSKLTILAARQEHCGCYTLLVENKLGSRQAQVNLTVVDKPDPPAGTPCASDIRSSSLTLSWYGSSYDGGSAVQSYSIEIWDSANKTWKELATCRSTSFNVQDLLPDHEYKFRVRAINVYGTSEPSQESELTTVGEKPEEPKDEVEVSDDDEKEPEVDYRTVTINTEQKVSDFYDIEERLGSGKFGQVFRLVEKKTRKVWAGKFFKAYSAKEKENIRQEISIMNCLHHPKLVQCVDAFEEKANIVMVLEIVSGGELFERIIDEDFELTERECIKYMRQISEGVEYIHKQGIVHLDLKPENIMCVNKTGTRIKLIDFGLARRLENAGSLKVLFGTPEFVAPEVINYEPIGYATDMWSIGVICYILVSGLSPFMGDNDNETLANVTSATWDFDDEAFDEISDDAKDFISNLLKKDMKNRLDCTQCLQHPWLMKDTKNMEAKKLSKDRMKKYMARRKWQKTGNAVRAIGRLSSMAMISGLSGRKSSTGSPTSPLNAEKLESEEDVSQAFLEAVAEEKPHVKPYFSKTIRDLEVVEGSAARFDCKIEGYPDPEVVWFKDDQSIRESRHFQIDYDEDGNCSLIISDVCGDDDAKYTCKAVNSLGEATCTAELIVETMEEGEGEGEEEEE

NEK2 (human) = NEK2 (human) (UniProt P51955)
NEK6 (human) = NEK6 (human) (UniProt Q9HC98)
NEK6 (human), sequence (Q9HC98 whole entry, looked up): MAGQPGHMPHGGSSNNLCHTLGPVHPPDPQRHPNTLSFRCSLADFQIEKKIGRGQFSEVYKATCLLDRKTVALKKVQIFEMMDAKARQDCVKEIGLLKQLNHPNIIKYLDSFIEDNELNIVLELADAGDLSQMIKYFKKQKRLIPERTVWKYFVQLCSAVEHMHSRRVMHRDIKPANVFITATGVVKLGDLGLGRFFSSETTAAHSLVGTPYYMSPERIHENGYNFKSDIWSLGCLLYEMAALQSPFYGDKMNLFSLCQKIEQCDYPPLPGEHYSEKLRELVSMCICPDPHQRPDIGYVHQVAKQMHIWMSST

[3] = tested on: PAK2 (human), Q13177 [T402E]
PHKG1 (human) = PHKG1 (human) (UniProt Q16816)
PIM2 (human) = PIM2 (human) (UniProt Q9P1W9)
PIM3 (human) = PIM3 (human) (UniProt Q86V86)
PKN2 (human) = PKN2 (human) (UniProt Q16513)
ROCK2 (rat) = settings: accession and sequence are those of the human protein
[4] = tested on: RPS6KB1 (human), P23443 [T412E]
SRPK1 (human) = SRPK1 (human) (UniProt Q96SB4)
[5] = target: STK11 CAB39 STRADA (human) (UniProt Q9Y376+Q7RTN6+Q15831)
STK11 CAB39 STRADA (human), sequence (Q15831 whole entry, looked up): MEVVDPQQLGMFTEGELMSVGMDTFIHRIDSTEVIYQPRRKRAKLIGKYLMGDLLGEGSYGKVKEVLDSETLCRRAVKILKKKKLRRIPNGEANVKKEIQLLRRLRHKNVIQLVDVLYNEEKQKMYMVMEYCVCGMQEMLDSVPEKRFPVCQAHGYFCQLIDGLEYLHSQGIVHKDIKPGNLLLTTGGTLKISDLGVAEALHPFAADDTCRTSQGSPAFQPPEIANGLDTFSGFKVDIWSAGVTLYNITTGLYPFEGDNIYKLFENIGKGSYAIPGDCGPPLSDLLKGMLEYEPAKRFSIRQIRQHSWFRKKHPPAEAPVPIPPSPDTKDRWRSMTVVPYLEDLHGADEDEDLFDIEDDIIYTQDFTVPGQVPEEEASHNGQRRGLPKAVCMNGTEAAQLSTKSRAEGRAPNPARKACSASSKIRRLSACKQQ
STK11 CAB39 STRADA (human), sequence (Q7RTN6 whole entry, looked up): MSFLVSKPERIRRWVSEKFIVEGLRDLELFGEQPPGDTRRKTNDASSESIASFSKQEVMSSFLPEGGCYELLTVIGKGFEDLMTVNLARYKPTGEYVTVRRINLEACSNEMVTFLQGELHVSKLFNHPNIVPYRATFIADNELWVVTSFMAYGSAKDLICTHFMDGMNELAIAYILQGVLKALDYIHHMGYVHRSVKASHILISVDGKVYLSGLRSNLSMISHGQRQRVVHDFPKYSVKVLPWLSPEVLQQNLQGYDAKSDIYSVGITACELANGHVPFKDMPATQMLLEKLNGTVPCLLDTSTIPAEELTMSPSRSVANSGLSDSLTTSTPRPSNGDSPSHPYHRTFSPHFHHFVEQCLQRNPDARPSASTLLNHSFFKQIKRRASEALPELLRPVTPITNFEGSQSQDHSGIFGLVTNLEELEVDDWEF
STK11 CAB39 STRADA (human), sequence (Q9Y376 whole entry, looked up): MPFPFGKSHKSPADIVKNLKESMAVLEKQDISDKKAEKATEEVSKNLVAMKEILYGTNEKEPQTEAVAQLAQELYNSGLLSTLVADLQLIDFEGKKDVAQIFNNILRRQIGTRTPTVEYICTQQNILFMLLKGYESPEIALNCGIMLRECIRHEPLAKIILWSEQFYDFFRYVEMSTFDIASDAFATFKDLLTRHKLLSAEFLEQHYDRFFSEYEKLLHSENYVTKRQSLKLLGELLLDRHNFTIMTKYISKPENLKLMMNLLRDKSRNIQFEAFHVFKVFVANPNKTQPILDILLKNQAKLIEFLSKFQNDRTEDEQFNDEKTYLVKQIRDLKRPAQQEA

SYK (human) = SYK (human) (UniProt P43405)
TBK1 (human) = TBK1 (human) (UniProt Q9UHD2)
TTK (human) = TTK (human) (UniProt P33981)

Q: `O=c1c(O)c(-c2ccc(O)c(O)c2)oc2cc(O)c(O)c(O)c12` was tested. Which residual activity ([1]; compound 1.0 µM) did it give?
A: The residual activity was 106%.

Q: And the residual activity ([1]; compound 10.0 µM)?
A: The residual activity was 99%.

Q: What about the residual activity ([2]; compound 1.0 µM) of the same compound?
A: Its residual activity is 21%.

Q: What about the residual activity ([2]; compound 10.0 µM) of the same compound?
A: The residual activity was 1%.

Q: What about the residual activity (CSNK2A1 (human); compound 1.0 µM) of the same compound?
A: The residual activity was 46%.

Q: And the residual activity (CSNK2A1 (human); compound 10.0 µM)?
A: The residual activity was 7%.

Q: What about the residual activity (DYRK3 (human); compound 1.0 µM) of the same compound?
A: Its residual activity is 59%.

Q: And the residual activity (DYRK3 (human); compound 10.0 µM)?
A: Its residual activity is 2%.

Q: What about the residual activity (EPHA2 (human); compound 1.0 µM) of the same compound?
A: The residual activity was 94%.

Q: And the residual activity (EPHA2 (human); compound 10.0 µM)?
A: The residual activity was 73%.

Q: And the residual activity (EPHB1 (human))?
A: Its residual activity is 85%.

Q: And the residual activity (FGFR1 (human); compound 1.0 µM)?
A: Its residual activity is 27%.

Q: What about the residual activity (FGFR1 (human); compound 10.0 µM) of the same compound?
A: The residual activity was 14%.

Q: And the residual activity (GSK3B (human); compound 1.0 µM)?
A: Its residual activity is 94%.

Q: What about the residual activity (GSK3B (human); compound 10.0 µM) of the same compound?
A: Its residual activity is 19%.

Q: What about the residual activity (INSR (human); compound 1.0 µM) of the same compound?
A: The residual activity was 86%.

Q: And the residual activity (INSR (human); compound 10.0 µM)?
A: Its residual activity is 62%.

Q: What about the residual activity (INSRR (human); compound 1.0 µM) of the same compound?
A: The residual activity was 76%.

Q: What about the residual activity (INSRR (human); compound 10.0 µM) of the same compound?
A: Its residual activity is 21%.

Q: What about the residual activity (IRAK4 (human); compound 1.0 µM) of the same compound?
A: Its residual activity is 80%.

Q: What about the residual activity (IRAK4 (human); compound 10.0 µM) of the same compound?
A: The residual activity was 46%.

Q: What about the residual activity (LCK (mouse); compound 1.0 µM) of the same compound?
A: The residual activity was 102%.

Q: And the residual activity (LCK (mouse); compound 10.0 µM)?
A: The residual activity was 95%.

Q: And the residual activity (MAP2K1 (human); compound 1.0 µM)?
A: Its residual activity is 84%.

Q: What about the residual activity (MAP2K1 (human); compound 10.0 µM) of the same compound?
A: Its residual activity is 24%.

Q: What about the residual activity (MAP2K6 (human)) of the same compound?
A: The residual activity was 102%.

Q: What about the residual activity (MAP3K9 (human); compound 1.0 µM) of the same compound?
A: The residual activity was 100%.

Q: And the residual activity (MAP3K9 (human); compound 10.0 µM)?
A: Its residual activity is 24%.

Q: What about the residual activity (MAPK10 (human); compound 1.0 µM) of the same compound?
A: Its residual activity is 107%.

Q: What about the residual activity (MAPK10 (human); compound 10.0 µM) of the same compound?
A: The residual activity was 89%.

Q: What about the residual activity (MAPK11 (human); compound 1.0 µM) of the same compound?
A: The residual activity was 101%.

Q: What about the residual activity (MAPK11 (human); compound 10.0 µM) of the same compound?
A: Its residual activity is 90%.

Q: What about the residual activity (MAPK13 (human); compound 1.0 µM) of the same compound?
A: Its residual activity is 96%.

Q: What about the residual activity (MAPK13 (human); compound 10.0 µM) of the same compound?
A: The residual activity was 97%.

Q: What about the residual activity (MARK1 (human); compound 1.0 µM) of the same compound?
A: Its residual activity is 40%.

Q: What about the residual activity (MARK1 (human); compound 10.0 µM) of the same compound?
A: The residual activity was 11%.

Q: And the residual activity (MARK2 (human); compound 1.0 µM)?
A: Its residual activity is 86%.

Q: What about the residual activity (MARK2 (human); compound 10.0 µM) of the same compound?
A: The residual activity was 26%.

Q: And the residual activity (MKNK1 (human); compound 1.0 µM)?
A: The residual activity was 61%.

Q: What about the residual activity (MKNK1 (human); compound 10.0 µM) of the same compound?
A: Its residual activity is 12%.

Q: What about the residual activity (MYLK (human); compound 1.0 µM) of the same compound?
A: The residual activity was 87%.

Q: What about the residual activity (MYLK (human); compound 10.0 µM) of the same compound?
A: Its residual activity is 23%.

Q: What about the residual activity (NEK2 (human); compound 1.0 µM) of the same compound?
A: Its residual activity is 86%.

Q: And the residual activity (NEK2 (human); compound 10.0 µM)?
A: The residual activity was 13%.

Q: What about the residual activity (NEK6 (human); compound 1.0 µM) of the same compound?
A: The residual activity was 99%.

Q: What about the residual activity (NEK6 (human); compound 10.0 µM) of the same compound?
A: The residual activity was 21%.

Q: What about the residual activity ([3]; compound 1.0 µM) of the same compound?
A: Its residual activity is 96%.

Q: And the residual activity ([3]; compound 10.0 µM)?
A: Its residual activity is 98%.

Q: And the residual activity (PHKG1 (human); compound 1.0 µM)?
A: The residual activity was 98%.

Q: What about the residual activity (PHKG1 (human); compound 10.0 µM) of the same compound?
A: Its residual activity is 2%.

Q: What about the residual activity (PIM2 (human); compound 1.0 µM) of the same compound?
A: Its residual activity is 74%.

Q: And the residual activity (PIM2 (human); compound 10.0 µM)?
A: Its residual activity is 11%.

Q: And the residual activity (PIM3 (human); compound 1.0 µM)?
A: The residual activity was 34%.

Q: And the residual activity (PIM3 (human); compound 10.0 µM)?
A: Its residual activity is 0%.

Q: And the residual activity (PKN2 (human); compound 1.0 µM)?
A: The residual activity was 106%.

Q: And the residual activity (PKN2 (human); compound 10.0 µM)?
A: Its residual activity is 102%.

Q: And the residual activity (ROCK2 (rat); compound 1.0 µM)?
A: Its residual activity is 95%.

Q: What about the residual activity (ROCK2 (rat); compound 10.0 µM) of the same compound?
A: The residual activity was 56%.

Q: And the residual activity ([4]; compound 1.0 µM)?
A: Its residual activity is 104%.

Q: And the residual activity ([4]; compound 10.0 µM)?
A: Its residual activity is 14%.

Q: And the residual activity (SRPK1 (human); compound 1.0 µM)?
A: Its residual activity is 55%.

Q: And the residual activity (SRPK1 (human); compound 10.0 µM)?
A: The residual activity was 3%.

Q: What about the residual activity ([5]; compound 1.0 µM) of the same compound?
A: The residual activity was 95%.

Q: What about the residual activity ([5]; compound 10.0 µM) of the same compound?
A: Its residual activity is 55%.

Q: And the residual activity (SYK (human); compound 1.0 µM)?
A: The residual activity was 89%.

Q: What about the residual activity (SYK (human); compound 10.0 µM) of the same compound?
A: The residual activity was 93%.

Q: And the residual activity (TBK1 (human); compound 1.0 µM)?
A: Its residual activity is 54%.

Q: What about the residual activity (TBK1 (human); compound 10.0 µM) of the same compound?
A: The residual activity was 64%.

Q: What about the residual activity (TTK (human); compound 1.0 µM) of the same compound?
A: The residual activity was 75%.

Q: What about the residual activity (TTK (human); compound 10.0 µM) of the same compound?
A: Its residual activity is 36%.
